# Measured values from ChEMBL document CHEMBL5376003, “Structure-Activity Relationship of FL118 Platform Position 7 Versus Position 9-Derived Compounds and Their Mechanism of Action and Antitumor Activity” (J Med Chem, 2023).
# Calls of active or inactive are those of the source. The calls are words filed in the database; no cut-off is given here.
# Legend:
# [1] = system: HCT-116; assay: Induction of apoptosis in human HCT-116 cells assessed as increase in intracellular ROS level at 10 to 1000 nM incubated for 4 to 8 hrs by DCFH-DA staining based fluorescence microscopy; format: functional, cell-based; details: dose 10-1000 nM, time 4-8 hrs
# [2] = system: HCT-116; assay: Inhibition of cell migration in human HCT-116 cells assessed as intercellular distance at 5 nM by inverted phase-contrast microscopic analysis (reference value: 2.5 +/- 0.7 millimeter); format: functional
# [3] = system: HCT-116; assay: Induction of apoptosis in human HCT-116 cells assessed as upregulation of DDX5 mRNA expression at 50 nM incubated for 24 hrs by RNA analysis; format: functional, cell-based
# [4] = system: HCT-116; assay: Induction of apoptosis in human HCT-116 cells assessed as modulation of TOP1 mRNA expression at 10 to 500 nM incubated for 6 to 48 hrs by RNA analysis; format: functional, cell-based; details: dose 10-500 nM, time 6-48 hrs
# [5] = system: HCT-116; assay: Induction of apoptosis in human HCT-116 cells assessed as modulation of TOP3A mRNA expression at 10 to 500 nM incubated for 6 to 48 hrs by RNA analysis; format: functional, cell-based; details: dose 10-500 nM, time 6-48 hrs
# [6] = system: HCT-116; assay: Induction of apoptosis in human HCT-116 cells assessed as modulation of TOP3B mRNA expression at 10 to 500 nM incubated for 6 to 48 hrs by RNA analysis; format: functional, cell-based; details: dose 10-500 nM, time 6-48 hrs
# [7] = system: HCT-116; assay: Induction of apoptosis in human HCT-116 cells assessed as modulation of DDX18 mRNA expression at 10 to 500 nM incubated for 6 to 48 hrs by RNA analysis; format: functional, cell-based; details: dose 10-500 nM, time 6-48 hrs
# [8] = system: HCT-116; assay: Induction of apoptosis in human HCT-116 cells assessed as modulation of DDX19B mRNA expression at 10 to 500 nM incubated for 6 to 48 hrs by RNA analysis; format: functional, cell-based; details: dose 10-500 nM, time 6-48 hrs
# [9] = system: HCT-116; assay: Induction of apoptosis in human HCT-116 cells assessed as modulation of DDX42 mRNA expression at 10 to 500 nM incubated for 6 to 48 hrs by RNA analysis; format: functional, cell-based; details: dose 10-500 nM, time 6-48 hrs
# [10] = system: HCT-116; assay: Induction of apoptosis in human HCT-116 cells assessed as modulation of DDX49 mRNA expression at 10 to 500 nM incubated for 6 to 48 hrs by RNA analysis; format: functional, cell-based; details: dose 10-500 nM, time 6-48 hrs
# [11] = system: HCT-116; assay: Induction of apoptosis in human HCT-116 cells assessed as downregulation of BIRC5 mRNA expression at 10 to 500 nM incubated for 6 to 48 hrs by RNA analysis; format: functional, cell-based; details: dose 10-500 nM, time 6-48 hrs
# [12] = system: HCT-116; assay: Induction of apoptosis in human HCT-116 cells assessed as downregulation of GTF2H1 mRNA expression at 10 to 500 nM incubated for 6 to 48 hrs by RNA analysis; format: functional, cell-based; details: dose 10-500 nM, time 6-48 hrs
# [13] = system: HCT-116; assay: Induction of apoptosis in human HCT-116 cells assessed as downregulation of RFC3 mRNA expression at 10 to 500 nM incubated for 6 to 48 hrs by RNA analysis; format: functional, cell-based; details: dose 10-500 nM, time 6-48 hrs
# [14] = system: HCT-116; assay: Activation of innate immune response in human HCT-116 cells assessed as upregulation of IL-12B gene expression at 10 to 500 nM incubated for 6 to 48 hrs by RNA analysis; format: functional, cell-based; details: dose 10-500 nM, time 6-48 hrs
# [15] = system: HCT-116; assay: Activation of innate immune response in human HCT-116 cells assessed as upregulation of IRF5 gene expression at 10 to 500 nM incubated for 6 to 48 hrs by RNA analysis; format: functional, cell-based; details: dose 10-500 nM, time 6-48 hrs
# [16] = system: HCT-116; assay: Induction of apoptosis in human HCT-116 cells assessed as downregulation of ADPGK gene expression at 10 to 500 nM incubated for 6 to 48 hrs by RNA analysis; format: functional, cell-based; details: dose 10-500 nM, time 6-48 hrs
# [17] = system: HCT-116; assay: Induction of apoptosis in human HCT-116 cells assessed as downregulation of NUP160 gene expression at 10 to 500 nM incubated for 6 to 48 hrs by RNA analysis; format: functional, cell-based; details: dose 10-500 nM, time 6-48 hrs
# [18] = system: HCT-116; assay: Induction of apoptosis in human HCT-116 cells assessed as downregulation of NUP58 gene expression at 10 to 500 nM incubated for 6 to 48 hrs by RNA analysis; format: functional, cell-based; details: dose 10-500 nM, time 6-48 hrs
# [19] = system: HCT-116; assay: Induction of apoptosis in human HCT-116 cells assessed as downregulation of NUP62 gene expression at 10 to 500 nM incubated for 6 to 48 hrs by RNA analysis; format: functional, cell-based; details: dose 10-500 nM, time 6-48 hrs
# [20] = system: HCT-116; assay: Induction of apoptosis in human HCT-116 cells assessed as downregulation of NUP93 gene expression at 10 to 500 nM incubated for 6 to 48 hrs by RNA analysis; format: functional, cell-based; details: dose 10-500 nM, time 6-48 hrs
# [21] = system: HCT-116; assay: Induction of apoptosis in human HCT-116 cells assessed as downregulation of NUP98 gene expression at 10 to 500 nM incubated for 6 to 48 hrs by RNA analysis; format: functional, cell-based; details: dose 10-500 nM, time 6-48 hrs
# [22] = system: HCT-116; assay: Induction of apoptosis in human HCT-116 cells assessed as downregulation of CTPS1 gene expression at 10 to 500 nM incubated for 6 to 48 hrs by RNA analysis; format: functional, cell-based; details: dose 10-500 nM, time 6-48 hrs
# [23] = system: HCT-116; assay: Induction of apoptosis in human HCT-116 cells assessed as downregulation of NME4 gene expression at 10 to 500 nM incubated for 6 to 48 hrs by RNA analysis; format: functional, cell-based; details: dose 10-500 nM, time 6-48 hrs
# [24] = system: HCT-116; assay: Induction of apoptosis in human HCT-116 cells assessed as downregulation of PPAT gene expression at 10 to 500 nM incubated for 6 to 48 hrs by RNA analysis; format: functional, cell-based; details: dose 10-500 nM, time 6-48 hrs
# [25] = system: HCT-116; assay: Induction of apoptosis in human HCT-116 cells assessed as downregulation of ADSL gene expression at 10 to 500 nM incubated for 6 to 48 hrs by RNA analysis; format: functional, cell-based; details: dose 10-500 nM, time 6-48 hrs
# [26] = system: HCT-116; assay: Induction of apoptosis in human HCT-116 cells assessed as downregulation of ATIC gene expression at 10 to 500 nM incubated for 6 to 48 hrs by RNA analysis; format: functional, cell-based; details: dose 10-500 nM, time 6-48 hrs
# [27] = system: HCT-116; assay: Induction of apoptosis in human HCT-116 cells assessed as downregulation of DPYD gene expression at 10 to 500 nM incubated for 6 to 48 hrs by RNA analysis; format: functional, cell-based; details: dose 10-500 nM, time 6-48 hrs
# [28] = system: HCT-116; assay: Induction of apoptosis in human HCT-116 cells assessed as downregulation of DTYMK gene expression at 10 to 500 nM incubated for 6 to 48 hrs by RNA analysis; format: functional, cell-based; details: dose 10-500 nM, time 6-48 hrs
# [29] = system: HCT-116; assay: Induction of apoptosis in human HCT-116 cells assessed as downregulation of TXNRD1 gene expression at 10 to 500 nM incubated for 6 to 48 hrs by RNA analysis; format: functional, cell-based; details: dose 10-500 nM, time 6-48 hrs
# [30] = system: HCT-116; assay: Induction of apoptosis in human HCT-116 cells assessed as downregulation of Survivin protein expression incubated for 48 hrs by Western blotting analysis; format: functional, cell-based
SMILES,Activity [1],Activity [2],Activity [3],Activity [4],Activity [5],Activity [6],Activity [7],Activity [8],Activity [9],Activity [10],Activity [11],Activity [12],Activity [13],Activity [14],Activity [15],Activity [17],Activity [19],Activity [20],Activity [21],Activity [22],further results
CC[C@@]1(O)C(=O)OCc2c1cc1n(c2=O)Cc2cc3cc4c(cc3nc2-1)OCO4,Active,2.6 mm,inactive,Active,Active,Active,Active,Active,Active,Active,Active,Active,Active,Active,Active,Active,Active,Active,Active,Active,Activity [16]: Active; Activity [18]: Active; Activity [23]: Active; Activity [24]: Active; Activity [25]: Active; Activity [26]: Active; Activity [27]: Active; Activity [28]: Active; Activity [29]: Active
CC[C@@]1(O)C(=O)OCc2c1cc1n(c2=O)Cc2c-1nc1cc3c(cc1c2-c1cc(OC)cc(OC)c1)OCO3,Active,2.7 mm,inactive,Active,Active,Active,Active,Active,Active,Active,Active,Active,Active,Active,Active,Active,Active,Active,Active,Active,Activity [30]: Active; Activity [23]: Active; Activity [24]: Active; Activity [25]: Active; Activity [26]: Active; Activity [28]: Active; Activity [29]: Active
CCc1ccc(-c2c3c(nc4cc5c(cc24)OCO5)-c2cc4c(c(=O)n2C3)COC(=O)[C@]4(O)CC)cc1,Active,2.6 mm,inactive,Active,Active,Active,Active,Active,Active,Active,Active,Active,Active,Active,Active,Active,Active,Active,Active,Active,Activity [30]: Active; Activity [16]: Active; Activity [18]: Active; Activity [23]: Active; Activity [24]: Active; Activity [25]: Active; Activity [26]: Active; Activity [27]: Active; Activity [28]: Active; Activity [29]: Active
CC[C@@]1(O)C(=O)OCc2c1cc1n(c2=O)Cc2c-1nc1cc3c(cc1c2-c1ccc(OC)cc1)OCO3,Active,2.8 mm,inactive,Active,Active,Active,Active,Active,Active,Active,Active,Active,Active,Active,Active,Active,Active,Active,Active,Active,Activity [30]: Active; Activity [16]: Active; Activity [18]: Active; Activity [23]: Active; Activity [24]: Active; Activity [25]: Active; Activity [26]: Active; Activity [27]: Active; Activity [28]: Active; Activity [29]: Active
